Laboratory results reported in ChEMBL document CHEMBL3046781, “Resistance of Helicoverpa assulta (Guenée) (Lepidoptera: Noctuidae) to fenvalerate, phoxim and methomyl in China” (2009).

Key:
Assay type in all cases: functional
Helicoverpa assulta [1] = experiment: Insecticidal activity against sixth-instar larvae of Helicoverpa assulta SD2 at 1.8 to 183360 mg/l after 48 hr by chi-squared analysis
Helicoverpa assulta [2] = experiment: Resistance factor, ratio of LD50 for sixth-instar larvae of Helicoverpa assulta FJ3 to LD50 for sixth-instar larvae of Helicoverpa assulta at 1.8 to 183360 mg/l
Helicoverpa assulta [3] = experiment: Resistance factor, ratio of LD50 for sixth-instar larvae of Helicoverpa assulta SD1 to LD50 for sixth-instar larvae of Helicoverpa assulta at 1.8 to 183360 mg/l
Helicoverpa assulta [4] = experiment: Resistance factor, ratio of LD50 for sixth-instar larvae of Helicoverpa assulta YN3 to LD50 for sixth-instar larvae of Helicoverpa assulta at 21 to 3390 mg/l
Helicoverpa assulta [5] = experiment: Insecticidal activity against sixth-instar larvae of Helicoverpa assulta YN1 at 21 to 3390 mg/l after 48 hr by chi-squared analysis
Helicoverpa assulta [6] = experiment: Resistance factor, ratio of LD50 for sixth-instar larvae of Helicoverpa assulta GZ5 to LD50 for sixth-instar larvae of Helicoverpa assulta at 21 to 3390 mg/l
Helicoverpa assulta [7] = experiment: Resistance factor, ratio of LD50 for sixth-instar larvae of Helicoverpa assulta GZ1 to LD50 for sixth-instar larvae of Helicoverpa assulta at 21 to 3390 mg/l
Helicoverpa assulta [8] = experiment: Insecticidal activity against sixth-instar larvae of Helicoverpa assulta YN6 at 21 to 3390 mg/l after 48 hr by chi-squared analysis
Helicoverpa assulta [9] = experiment: Resistance factor, ratio of LD50 for sixth-instar larvae of Helicoverpa assulta GZ2 to LD50 for sixth-instar larvae of Helicoverpa assulta at 21 to 3390 mg/l
Helicoverpa assulta [10] = experiment: Resistance factor, ratio of LD50 for sixth-instar larvae of Helicoverpa assulta YN4 to LD50 for sixth-instar larvae of Helicoverpa assulta at 39 to 12630 mg/l
Helicoverpa assulta [11] = experiment: Insecticidal activity against sixth-instar larvae of Helicoverpa assulta HN1 at 39 to 12630 mg/l after 48 hr by chi-squared analysis
Helicoverpa assulta [12] = experiment: Insecticidal activity against sixth-instar larvae of Helicoverpa assulta YN8 at 39 to 12630 mg/l after 48 hr by chi-squared analysis
Helicoverpa assulta [13] = experiment: Resistance factor, ratio of LD50 for sixth-instar larvae of Helicoverpa assulta YN7 to LD50 for sixth-instar larvae of Helicoverpa assulta at 39 to 12630 mg/l

Q: How did the LD90 (Helicoverpa assulta [1]) turn out when `CC(C)C(C(=O)OC(C#N)c1cccc(Oc2ccccc2)c1)c1ccc(Cl)cc1` (stereo not drawn) [FENVALERATE] was run?
A: 27.2 µg/g

Q: What about the LD50 (Helicoverpa assulta [1]; Helicoverpa assulta, SD2, 48 h) of the same molecule?
A: 1.94 mg/kg

Q: And the Ratio (Helicoverpa assulta [2])?
A: 9.06

Q: And the Ratio (Helicoverpa assulta [3])?
A: 9.8

Q: Which Ratio (Helicoverpa assulta [4]) does the source give for `CNC(=O)ON=C(C)SC` [METHOMYL] here?
A: 23.1

Q: What about the LD90 (Helicoverpa assulta [5]) of the same molecule?
A: 225 µg/g

Q: What about the LD50 (Helicoverpa assulta [5]; Helicoverpa assulta, YN1, 48 h) of the same molecule?
A: 45.6 mg/kg

Q: And the Ratio (Helicoverpa assulta [6])?
A: 14.5

Q: And the Ratio (Helicoverpa assulta [7])?
A: 28.9

Q: What about the LD90 (Helicoverpa assulta [8]) of the same molecule?
A: 66.2 µg/g

Q: What about the LD50 (Helicoverpa assulta [8]; Helicoverpa assulta, YN6, 48 h) of the same molecule?
A: 19.7 mg/kg

Q: What about the Ratio (Helicoverpa assulta [9]) of the same molecule?
A: 13.9

Q: Which Ratio (Helicoverpa assulta [10]) does the source give for `CCOP(=S)(OCC)O/N=C(\C#N)c1ccccc1` [PHOXIM] here?
A: 16.9

Q: And the LD90 (Helicoverpa assulta [11])?
A: 23.1 µg/g

Q: And the LD50 (Helicoverpa assulta [11]; Helicoverpa assulta, HN1, 48 h)?
A: 10.5 mg/kg

Q: And the LD90 (Helicoverpa assulta [12])?
A: 105 µg/g

Q: And the LD50 (Helicoverpa assulta [12]; Helicoverpa assulta, YN8, 48 h)?
A: 40.3 mg/kg

Q: What about the Ratio (Helicoverpa assulta [13]) of the same molecule?
A: 17.9
